Test: xn = mol fraction of the nth substance listed

O=[N+]([O-])[O-].O=[N+]([O-])[O-].O=[N+]([O-])[O-].[Y+3] + O
viscosity [mPa·s], 101.3 kPa
Details | x1 = 0.008908 | x1 = 0.01764 | x1 = 0.02626 | x1 = 0.03447 | x1 = 0.05042 | x1 = 0.06636 | x1 = 0.08199
293.15 K | 1.335 | 1.809 | 2.474 | 3.484 | 7.18 | 15.24 | 33.5
298.15 K | 1.191 | 1.61 | 2.197 | 3.056 | 6.164 | 12.8 | 26.72
308.15 K | 0.9655 | 1.305 | 1.765 | 2.405 | 4.677 | 8.991 | 18.14

FC(F)(Cl)C(F)(F)Cl + FC(F)Cl
101 kPa
Details | viscosity [mPa·s]
293.25 K, x2 = 0.182 | 0.3196
293.25 K, x2 = 0.457 | 0.2521
293.25 K, x2 = 0.568 | 0.2391
293.25 K, x2 = 0.663 | 0.2175
293.25 K, x2 = 0.748 | 0.1992
293.35 K, x2 = 0.947 | 0.1767
293.75 K, x2 = 0.329 | 0.2853
312.85 K, x2 = 0.457 | 0.2097
312.85 K, x2 = 0.663 | 0.1757
312.95 K, x2 = 0.182 | 0.2474
312.95 K, x2 = 0.821 | 0.1515
313.05 K, x2 = 0.568 | 0.1902
313.05 K, x2 = 0.748 | 0.1648
313.05 K, x2 = 0.947 | 0.141
313.15 K, x2 = 0.891 | 0.1461
313.55 K, x2 = 0.329 | 0.2284

CCCC(C)CO (stereo unspecified) + CCO
298.15 K, 101.33 kPa
Details | viscosity [mPa·s]
x2 = 0.1048 | 4.615
x2 = 0.2134 | 3.996
x2 = 0.3147 | 3.481
x2 = 0.4122 | 3.014
x2 = 0.5011 | 2.664
x2 = 0.6144 | 2.253
x2 = 0.7136 | 1.884
x2 = 0.7984 | 1.623
x2 = 0.9049 | 1.303

Clc1ccc(Cl)c(Cl)c1 + Nc1cccc(Cl)c1
viscosity [mPa·s], 100 kPa
Details | x2 = 0.0895 | x2 = 0.1795 | x2 = 0.3125 | x2 = 0.4256 | x2 = 0.5169 | x2 = 0.6254 | x2 = 0.7145 | x2 = 0.8102 | x2 = 0.9012
303.15 K | 1.993 | 2.225 | 2.565 | 2.851 | 3.079 | 3.348 | 3.566 | 3.798 | 4.017
308.15 K | 1.825 | 2.033 | 2.337 | 2.593 | 2.797 | 3.037 | 3.231 | 3.437 | 3.631
313.15 K | 1.658 | 1.843 | 2.111 | 2.336 | 2.516 | 2.727 | 2.896 | 3.078 | 3.248
318.15 K | 1.493 | 1.653 | 1.887 | 2.083 | 2.237 | 2.419 | 2.566 | 2.722 | 2.867

CCN(CC)c1ccccc1 + CCCCOCCO
viscosity [mPa·s], 101.3 kPa
Details | x2 = 0.0979 | x2 = 0.2008 | x2 = 0.289 | x2 = 0.3526 | x2 = 0.4964 | x2 = 0.5968 | x2 = 0.7021 | x2 = 0.794 | x2 = 0.8979
298 K | 1.87 | 1.887 | 1.923 | 1.968 | 2.102 | 2.198 | 2.343 | 2.461 | 2.631
303 K | 1.679 | 1.686 | 1.711 | 1.756 | 1.853 | 1.942 | 2.067 | 2.175 | 2.305
308 K | 1.511 | 1.516 | 1.538 | 1.572 | 1.655 | 1.731 | 1.844 | 1.927 | 2.048
313 K | 1.369 | 1.371 | 1.393 | 1.429 | 1.487 | 1.552 | 1.65 | 1.725 | 1.824
318 K | 1.248 | 1.249 | 1.262 | 1.286 | 1.365 | 1.402 | 1.481 | 1.544 | 1.631

CCCN(CCC)CCC + CCCCO
303.15 K, 101 kPa
Details | viscosity [mPa·s]
x1 = 0.01186 | 2.225
x1 = 0.01943 | 2.201
x1 = 0.03035 | 2.178
x1 = 0.03999 | 2.157
x1 = 0.05088 | 2.133
x1 = 0.0617 | 2.112
x1 = 0.07408 | 2.085
x1 = 0.08019 | 2.074
x1 = 0.08635 | 2.059

CCN(CC)c1ccccc1 + CC(=O)O
viscosity [mPa·s], 101 kPa
Details | 298.15 K | 318.15 K
x2 = 0.0992 | 2.081 | 1.363
x2 = 0.1985 | 2.343 | 1.489
x2 = 0.2959 | 2.722 | 1.597
x2 = 0.3986 | 3.462 | 1.91
x2 = 0.5022 | 4.639 | 2.408
x2 = 0.598 | 6.4 | 3.1
x2 = 0.7002 | 9.548 | 4.198
x2 = 0.7469 | 10.94 | 4.721
x2 = 0.7982 | 12 | 5.159
x2 = 0.8467 | 10.95 | 4.965
x2 = 0.9027 | 6.538 | 3.527

CCCCCCCCCCCC(=O)OCC + CCCCCCO
viscosity [mPa·s], 101.33 kPa
Details | 293.15 K | 298.15 K | 303.15 K | 308.15 K | 313.15 K | 318.15 K | 323.15 K
x2 = 0.1 | 3.266 | 2.909 | 2.623 | 2.367 | 2.136 | 1.965 | 1.778
x2 = 0.2 | 3.214 | 2.867 | 2.596 | 2.334 | 2.09 | 1.918 | 1.731
x2 = 0.2999 | 3.216 | 2.872 | 2.575 | 2.309 | 2.095 | 1.896 | 1.724
x2 = 0.4 | 3.215 | 2.868 | 2.57 | 2.296 | 2.067 | 1.883 | 1.695
x2 = 0.4999 | – | 2.906 | 2.597 | 2.316 | 2.073 | 1.896 | 1.7
x2 = 0.5 | 3.25 | – | – | – | – | – | –
x2 = 0.5999 | 3.374 | – | – | – | – | – | –
x2 = 0.6 | – | 3.01 | 2.673 | 2.379 | 2.13 | 1.942 | 1.725
x2 = 0.7 | 3.486 | 3.101 | 2.771 | 2.459 | 2.186 | 1.965 | 1.761
x2 = 0.8 | 3.852 | 3.366 | 2.979 | 2.621 | 2.316 | 2.079 | 1.848
x2 = 0.8999 | 4.374 | – | – | – | – | – | –
x2 = 0.9 | – | 3.769 | 3.316 | 2.902 | 2.568 | 2.261 | 1.972

From the CheMixHub viscosity set
